How the values were obtained:
Experiment in all cases: relative viability (nuclei count vs DMSO), 5 days (fraction); higher = more cells survive
[1] = compound: C1/C(=C\C2=CC=CS2)/C(=O)/C(=C/C3=CC=CS3)/C1 + NC(=O)Nc1cc(-c2cccc(F)c2)sc1C(=O)N[C@H]1CCCNC1 [AZD7762] (partner 0.2 µM)
Outline: (§1)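 Dosing by pin tool came one day after lung cancer cell lines were seeded in 1536-well plates, using either one drug or a fixed anchor-drug dose plus five library-drug doses (not always all listed) in √10 steps. After 5 days, nuclei were counted on 4× images. Relative viability is treated-well nuclei count divided by vehicle-well nuclei count, and values are medians of duplicate plates.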

[2] = compound: C1/C(=C\C2=CC=CS2)/C(=O)/C(=C/C3=CC=CS3)/C1 + CC1(C)CCC(c2ccc(Cl)cc2)=C(CN2CCN(c3ccc(C(=O)NS(=O)(=O)c4ccc(N[C@H](CCN5CCOCC5)CSc5ccccc5)c(S(=O)(=O)C(F)(F)F)c4)cc3)CC2)C1 [Navitoclax] (partner 0.5 µM)
Outline: as §1

[3] = compound: C[C@]12O[C@H](C[C@]1(O)CO)n1c3ccccc3c3c4c(c5c6ccccc6n2c5c31)CNC4=O [Lestaurtinib] + CC(=O)c1c(C)c2cnc(Nc3ccc(N4CCNCC4)cn3)nc2n(C2CCCC2)c1=O [Palbociclib] (partner 0.5 µM)
Outline: as §1

[4] = compound: C1=CC(=CC=C1C2=CC(=C(S2)NC(=O)N)C(=O)N)F [TPCA-1] + CC(=O)c1c(C)c2cnc(Nc3ccc(N4CCNCC4)cn3)nc2n(C2CCCC2)c1=O [Palbociclib] (partner 0.5 µM)
Outline: as §1

Row | Cell Line | relative viability ([1]; first compound 0.2 µM) | relative viability ([1]; first compound 0.6325 µM) | relative viability ([1]; first compound 2 µM) | relative viability ([1]; first compound 6.325 µM) | relative viability ([1]; first compound 20 µM) | relative viability ([2]; first compound 0.2 µM) | relative viability ([2]; first compound 0.6325 µM) | relative viability ([2]; first compound 2 µM) | relative viability ([2]; first compound 6.325 µM) | relative viability ([2]; first compound 20 µM) | relative viability ([3]; first compound 0.005 µM) | relative viability ([3]; first compound 0.01581 µM) | relative viability ([3]; first compound 0.05 µM) | relative viability ([3]; first compound 0.1581 µM) | relative viability ([3]; first compound 0.5 µM) | relative viability ([4]; first compound 0.04 µM) | relative viability ([4]; first compound 0.1265 µM) | relative viability ([4]; first compound 0.4 µM) | relative viability ([4]; first compound 1.265 µM) | relative viability ([4]; first compound 4 µM)
1 | HCC-15 | 1.14 | 1.33 | 1.41 | 1.06 | 1.13 | 0.696 | 0.676 | 0.682 | 0.621 | 0.615 | 0.751 | 0.779 | 0.68 | 0.687 | 0.187 | 0.835 | 0.698 | 0.801 | 0.694 | 0.472
2 | H3255 | 0.916 | 0.878 | 0.945 | 0.842 | 0.914 | 0.583 | 0.501 | 0.669 | 0.393 | 0.453 | 0.301 | 0.349 | 0.324 | 0.337 | 0.249 | 0.275 | 0.292 | 0.285 | 0.293 | 0.279
3 | NCI-H1792 | 0.772 | 0.755 | 0.75 | 0.521 | 0.587 | 0.666 | 0.579 | 0.743 | – | 0.624 | 0.976 | 0.734 | 0.491 | 0.768 | 0.366 | 0.707 | 0.562 | 0.593 | 0.574 | 0.496
4 | NCI-H2087 | 1.46 | 1.29 | 1.18 | 1.17 | 1.25 | 1.13 | 1.04 | 0.933 | 0.669 | 1.05 | 0.167 | 0.252 | 0.167 | 0.17 | 0.207 | 0.253 | 0.241 | 0.218 | 0.237 | 0.155
5 | EMC-BAC-2 | 1.19 | 1.1 | 1.09 | 0.91 | 1.12 | 1.21 | 1.11 | 1.13 | 1.05 | 1.1 | 0.505 | 0.51 | 0.456 | 0.353 | 0.305 | 0.513 | 0.519 | 0.524 | 0.413 | 0.485
6 | NCI-H1355 | 0.69 | 0.835 | 0.804 | 0.559 | 0.622 | 0.958 | 0.812 | 0.904 | 0.853 | 0.933 | 0.455 | 0.403 | 0.332 | 0.273 | 0.254 | 0.455 | 0.395 | 0.408 | 0.389 | 0.361
7 | NCI-H23 | 0.25 | 0.342 | 0.294 | 0.244 | 0.175 | 0.902 | 0.804 | 0.944 | 0.602 | 0.729 | 0.578 | 0.624 | 0.527 | 0.5 | 0.274 | 0.539 | 0.527 | 0.51 | 0.431 | 0.435
8 | NCI-H1651 | 0.474 | 0.511 | 0.486 | 0.505 | 0.45 | 1.25 | 1.01 | 1.07 | – | 1.11 | 0.536 | 0.594 | 0.551 | 0.569 | 0.497 | 0.54 | 0.493 | 0.51 | 0.535 | 0.505

From the supplement of paper PMC10307832
